Results: patent US20040072201A1, “Methods of identifying compounds that inhibit nonstop degradation of mRNA” (priority 2002, published 2004)

Experiments:
[1] = tested on: cultured chicken hepatocellular carcinoma cells; assay: ratio of truncated to full-length GHR transcripts after translational arrest; assay type: cell-based; conditions: after treatment with translational inhibitor
nonstop-PGK1 transcripts = assay: nonstop-PGK1 mRNA stability (half-life by Northern blot) in yeast; assay type: cell-based, Saccharomyces cerevisiae; conditions: treatment with translation inhibitor
From the text: In order to determine whether the presence of translational termination influences mRNA stability, we assayed PGK1 tran-scripts in Saccharomyces cerevisiae derived from the following constructs (3): wild-type PGK1 (WT-PGK1), a nonsense form of PGK1 harboring a PTC at codon 22 [PTC(22)-PGK1], and nonstop-PGK1 that was created by removing the bona fide termination codon and all in-frame termination codons in the 3′ UTR (untranslated region) from the WT-PGK1 transcript. Nonstop-PGK1 transcripts were as labile as their nonsense-containing counterparts. At least three trans-acting factors (Upf1p, Upf2p, and Upf3p) are essential for nonsense-mediated mRNA decay (NMD) in S. cerevisiae (4, 5). Remarkably, nonstop transcripts were not stabilized in strains lacking Upf1p, distinguishing the pathway of decay from NMD.
Additional experiments were performed to assess the role of translation in nonstop decay. […] It has been shown that translation into the 3′ UTR of selected transcripts can displace bound trans-factors that are positive determinants of message stability (13, 14). […]
27. […] Half-lives were determined by plotting the percent of mRNA remaining versus time on a semi-log plot. All half-lives were determined at 25° C. except for the ccr4Δ (performed at 30° C.) and dcp1-2 [performed after shift to the nonpermissive temp (37° C.) for 1 hour] experiments.

[2] = tested on: WT-PGK1 and Ter-poly(A)-PGK1 transcripts; assay: half-lives of WT-PGK1 and Ter-poly(A)-PGK1 transcripts in yeast treated with paromomycin; assay type: cell-based, Saccharomyces cerevisiae; conditions: 100 μg/ml CHX added during the last hour before half-life determination
Procedure: FIG. 2 depicts graphs of the half-lives of WT-PGK1 and Ter-poly(A)-PGK1 transcripts in wild-type-(WT) and SK17-deleted (ski7A) yeast strains treated with the indicated dose of paromomycin (mg/ml) (PM) for 20 hours. For cycloheximide (CHX) experiments, yeast were treated identically except 100 μg/ml of CHX was added during the last hour before half-life determination.
Any event that diminishes translational fidelity and promotes readthrough of termination codons could plausibly result in the generation of substrates for nonstop decay. In view of recent attempts to treat genetic disorders resulting from PTCs with long-term and high-dose aminoglycoside regimens, this may achieve medical significance. As a proof-of-concept experiment, we examined the performance of transcripts with one [Ter-poly(A)-PGK1] or multiple (WT-PGK1) in-frame termination codons (including those in the 3′ UTR) in yeast strains after treatment with paromomycin, which induces ribosomal readthrough.
27. All PGK1 minigene constructs were under the control of the GAL1 upstream activation sequence (UAS). […] Half-lives were determined by plotting the percent of mRNA remaining versus time on a semi-log plot. All half-lives were determined at 25° C. except for the ccr4Δ (performed at 30° C.) and dcp1-2 [performed after shift to the nonpermissive temp (37° C.) for 1 hour] experiments.

[3] = tested on: termination codon (UGA) in renilla luciferase ORF; assay: readthrough assay using a dual luciferase reporter construct; assay type: cell-based
From the text: FIG. 3 depicts the results of a readthrough assay using a dual luciferase reporter construct.
This example describes a readthrough assay that uses a dual lucifierase reporter construct. The firefly luciferase ORF is wild-type while translation of the renilla luciferase ORF is prevented by the presence of a termination codon (UGA). Cells were either untreated or treated with siRNAs directed against RRP4, an essential component of the exosome.

CC[C@H]1CN2CCc3cc(OC)c(OC)cc3[C@@H]2C[C@@H]1C[C@H]1NCCc2cc(OC)c(OC)cc21 [emetine]
ratio of truncated-to-full-length GHR transcripts [1]: dramatically increased

C[C@@H]1C[C@@H]([C@H](O)CC2CC(=O)NC(=O)C2)C(=O)[C@@H](C)C1 [cycloheximide]
stability of nonstop-PGK1 transcripts (nonstop-PGK1 transcripts): substantially increased the stability | effect on paromomycin-induced decrease in stability of Ter-poly(A)-PGK1 and WT-PGK1 transcripts [2]: could be reversed

gentamycin
readthrough, renilla:firefly ratio ([3]; exosome function inhibited by siRNAs directed against RRP4, increasing concentrations): dose-dependent increase in readthrough | readthrough, renilla:firefly ratio ([3]; intact exosome function (control RNAi), increasing concentrations): do not result in a significant increase in readthrough
